US20250002471A1 (Gilead Sciences, Inc., priority 2020, published 2025)

Legend:
[1] = molecular target: T1, TLR9 (Homo sapiens, UniProt Q9NR96); assay: Human PBMC cell-based assay, TLR9 agonist ODN-2216 stimulation, cytokine (IL-6 and IFNα) readout; conditions: human PBMCs, ODN-2216 3 μM, 6 hours; Table 26; read-out: TLR-9 EC50
T1 construct: lymphocytes, monocytes and dendritic cells that express TLR7, TLR8 and TLR9; endogenous in cells; host or cells: human PBMCs from healthy donors
T1 sequence (Q9NR96 26-1032): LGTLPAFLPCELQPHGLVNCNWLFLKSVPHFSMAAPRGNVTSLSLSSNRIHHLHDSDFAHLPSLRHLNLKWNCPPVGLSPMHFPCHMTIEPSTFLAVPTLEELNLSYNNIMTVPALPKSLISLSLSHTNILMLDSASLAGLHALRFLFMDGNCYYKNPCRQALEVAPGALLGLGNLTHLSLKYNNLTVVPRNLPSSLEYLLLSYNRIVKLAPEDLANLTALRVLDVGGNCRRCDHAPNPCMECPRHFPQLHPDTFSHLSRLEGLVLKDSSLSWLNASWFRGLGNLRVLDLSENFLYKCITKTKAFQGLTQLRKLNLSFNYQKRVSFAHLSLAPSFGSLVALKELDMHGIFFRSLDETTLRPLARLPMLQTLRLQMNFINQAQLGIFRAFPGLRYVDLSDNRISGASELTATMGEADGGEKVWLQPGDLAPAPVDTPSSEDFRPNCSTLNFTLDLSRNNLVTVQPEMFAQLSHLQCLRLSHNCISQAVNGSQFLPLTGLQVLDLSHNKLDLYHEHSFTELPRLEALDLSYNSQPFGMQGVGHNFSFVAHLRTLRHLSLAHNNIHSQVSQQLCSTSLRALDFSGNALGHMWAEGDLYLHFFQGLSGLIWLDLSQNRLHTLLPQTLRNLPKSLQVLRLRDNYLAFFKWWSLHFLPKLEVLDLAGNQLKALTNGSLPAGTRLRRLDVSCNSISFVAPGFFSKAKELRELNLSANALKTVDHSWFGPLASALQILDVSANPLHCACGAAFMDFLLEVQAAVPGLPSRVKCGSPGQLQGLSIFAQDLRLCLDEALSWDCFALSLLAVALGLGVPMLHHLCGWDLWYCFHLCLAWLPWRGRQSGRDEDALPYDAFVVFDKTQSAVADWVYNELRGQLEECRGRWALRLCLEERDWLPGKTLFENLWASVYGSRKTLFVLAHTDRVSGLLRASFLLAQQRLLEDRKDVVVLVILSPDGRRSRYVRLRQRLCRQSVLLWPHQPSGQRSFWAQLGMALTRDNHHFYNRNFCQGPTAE
Excerpt: (§1) Human peripheral blood mononuclear cells (PBMCs) consist of lymphocytes, monocytes and dendritic cells that express TLR7, TLR8 and TLR9. These cells respond to TLR7, TLR8 and TLR9 ligand stimulation and produce cytokines and chemokines in vitro and in vivo. Human PBMCs are therefore suitable to be used in a cell-based assay to assess the in vitro potency of a TLR 7, 8, and/or 9 antagonist. The result is expected to be more translatable to the pharmacodynamics response in vivo than cell line-based assays.
(§2) Cryopreserved human PBMCs from healthy donors were thawed and resuspended in RPMI-1640 media with L-glutamine (Corning) supplemented with 10% Fetal Bovine Serum (Hyclone) and 1X Penicillin-Streptomycin (Corning). After counting, the cell density was adjusted to 2 million cells/ml and incubated for 1 hour at 37° C., 5% CO2 for recovery. Following the recovery, the cells were plated by adding 50p per well (100,000 cells) to 384-well cell culture plates (Greiner) containing 250nl of test antagonists in 100% DMSO per well, in a 10 points dose response in quadruplicates. PBMCs were incubated in the presence of test antagonists for one hour at 37° C., 5% CO2 before being stimulated with a TLR7 or TLR9 agonist. GS-986 (Gilead Sciences) was used as the TLR7 agonist at a final concentration of 400 nM. ODN-2216 (InvivoGen) was used as the TLR9 agonist at a final concentration of 3μM. PBMCs were incubated in the presence of the test antagonist and the TLR7 (or TLR9) agonist for an additional 6 hours at 37° C., 5% CO2. At the end of the incubation, the cell culture plates were centrifuged at 500 g for 5 min, and the cell culture supernatant was collected. The level of cytokines (IL-6 and IFNα) in the supernatant was measured by electrochemiluminescence immunoassays (Mesoscale Discovery) following manufacturer's recommended protocols. The level of cytokine measured was plotted against the test antagonist concentration and fitted to a sigmoidal function to determine the EC50, which are shown below in Table 26.

[2] = molecular target: T2, TLR7 (Homo sapiens, UniProt Q9NYK1); assay: Human PBMC cell-based assay, TLR7 agonist GS-986 stimulation, cytokine (IL-6 and IFNα) readout; conditions: human PBMCs, GS-986 400 nM, 6 hours; Table 26; read-out: TLR-7 EC50
T2 construct: lymphocytes, monocytes and dendritic cells that express TLR7, TLR8 and TLR9; endogenous in cells; host or cells: human PBMCs from healthy donors
T2 sequence (Q9NYK1 27-1049): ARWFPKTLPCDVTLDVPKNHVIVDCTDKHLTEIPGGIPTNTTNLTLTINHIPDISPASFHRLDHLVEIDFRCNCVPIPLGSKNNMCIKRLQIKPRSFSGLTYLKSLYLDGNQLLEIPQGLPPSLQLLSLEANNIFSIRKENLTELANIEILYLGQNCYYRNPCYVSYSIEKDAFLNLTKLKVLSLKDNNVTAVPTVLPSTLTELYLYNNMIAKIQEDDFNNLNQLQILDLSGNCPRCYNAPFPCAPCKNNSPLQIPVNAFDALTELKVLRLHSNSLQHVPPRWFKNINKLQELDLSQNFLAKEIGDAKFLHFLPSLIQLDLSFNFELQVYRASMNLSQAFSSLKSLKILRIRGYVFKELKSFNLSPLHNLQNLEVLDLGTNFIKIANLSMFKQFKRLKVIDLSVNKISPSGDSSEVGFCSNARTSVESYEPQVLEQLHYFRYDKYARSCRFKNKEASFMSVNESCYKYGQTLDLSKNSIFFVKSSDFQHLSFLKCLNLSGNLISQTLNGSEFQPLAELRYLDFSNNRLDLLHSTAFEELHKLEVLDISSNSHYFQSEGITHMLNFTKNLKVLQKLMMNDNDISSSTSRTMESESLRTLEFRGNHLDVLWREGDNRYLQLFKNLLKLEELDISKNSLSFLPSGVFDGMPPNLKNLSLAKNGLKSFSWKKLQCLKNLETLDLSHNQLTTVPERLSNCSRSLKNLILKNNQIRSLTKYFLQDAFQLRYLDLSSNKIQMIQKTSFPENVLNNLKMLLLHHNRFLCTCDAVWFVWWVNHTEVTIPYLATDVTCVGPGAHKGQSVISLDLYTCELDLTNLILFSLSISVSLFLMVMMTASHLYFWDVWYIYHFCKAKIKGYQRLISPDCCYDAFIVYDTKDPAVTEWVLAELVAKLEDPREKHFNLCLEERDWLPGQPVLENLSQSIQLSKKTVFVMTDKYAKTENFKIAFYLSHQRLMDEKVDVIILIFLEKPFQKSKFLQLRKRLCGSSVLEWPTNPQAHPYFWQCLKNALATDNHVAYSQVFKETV
Excerpt: as §1, §2

SMILES | EC50 [1] | EC50 [2]
Cc1cc(-c2[nH]c3cc(-c4cccc(C(=O)N5CC6CNCC6C5)c4)ccc3c2C)cc(C)n1 (centres unmarked) [Example 123] | 274 nM | 374 nM
Cc1cc(-c2[nH]c3cc(-c4cnc5[nH]c(C)nc5c4)ccc3c2C)cc(C)n1 [Example 45] | 621 nM | 331 nM
Cc1cc(-c2[nH]c3cc(-c4ccc(N5CCNCC5)nc4)ccc3c2C#N)cc(C)n1 [Example 101, 2-(2,6-dimethylpyridin-4-yl)-6-(6-(piperazin-1-yl)pyridin-3-yl)-1H-indole-3-carbonitrile] | 316 nM | 1720 nM
Cc1cc(-c2[nH]c3cc(-c4ccn5ncnc5c4)ccc3c2C)cc(C)n1 [Example 58] | 1130 nM | 373 nM
Cc1cc(-c2[nH]c3cc(-c4cnn(C5CCNCC5)c4)ccc3c2C)cc(C)n1 [Example 6] | 84.5 nM | 15.8 nM
Cc1cc(-c2[nH]c3cc(-c4ccc(N5CCC(N)CC5)nc4)ccc3c2C2CC2)cc(C)n1 [Example 104, 1-(5-(3-cyclopropyl-2-(2,6-dimethylpyridin-4-yl)-1H-indol-6-yl)pyridin-2-yl)piperidin-4-amine] | 44.1 nM | 8.3 nM
Cc1cc(-c2[nH]c3cc(-c4ccc5c(c4)[nH]c(=O)n5C4CCNCC4)ccc3c2C)cc(C)n1 [Example 187, 6-[2-(2,6-dimethyl-4-pyridyl)-3-methyl-1H-indol-6-yl]-3-(4-piperidyl)-1H-benzimidazol-2-one] | 469 nM | 171 nM
Cc1cc(-c2[nH]c3cc(-c4ccc(N5CCN(CC(F)(F)F)CC5)nc4)ccc3c2C)cc(C)n1 [Example 142] | 1370 nM | > 1000 nM
Cc1cc(-c2[nH]c3cc(-c4ccc(N5CC[C@@H](N)C5)nc4)ccc3c2C2CC2)cc(C)n1 [Example 105] | 31.2 nM | 0.9 nM
Cc1cc(-c2[nH]c3cc(-c4ccc5c(n4)CCNC5)ccc3c2C)cc(C)n1 [Example 182] | 47.1 nM | 59.6 nM
Cc1cc(-c2[nH]c3cc(-c4cn(C5CCNCC5)nn4)ccc3c2C)cc(C)n1 [Example 72, 2-(2,6-dimethylpyridin-4-yl)-3-methyl-6-(1-(piperidin-4-yl)-1H-1,2,3-triazol-4-yl)-1H-indole] | 232 nM | 92 nM
Cc1cc(-c2[nH]c3cc(-c4nc(N5CCNCC5)no4)ccc3c2C)cc(C)n1 [Example 188, 5-[2-(2,6-dimethyl-4-pyridyl)-3-methyl-1H-indol-6-yl]-3-piperazin-1-yl-1,2,4-oxadiazole] | 175 nM | 270 nM
Cc1cc(-c2[nH]c3cc(-c4ccc5c(c4)CNCC5)ccc3c2C)cc(C)n1 [Example 14] | 108 nM | 213 nM
Cc1cc(-c2[nH]c3cc(-c4ccc(S(=O)(=O)C5CCNCC5)cc4)ccc3c2C)cc(C)n1 [Example 42] | 106 nM | 150 nM
Cc1cc(-c2[nH]c3cc(-c4ccc(N5CCN(C(=O)[C@H]6COCCN6)CC5)nc4)ccc3c2C)cc(C)n1 [Example 111] | 59.2 nM | 56.8 nM
Cc1cc(-c2[nH]c3cc(-c4ccc(N5CCN(C(=O)[C@@H]6CC(F)(F)CN6)CC5)nc4)ccc3c2C)cc(C)n1 [Example 138] | 288 nM | 415 nM
CC(=O)c1c(-c2cc(C)nc(C)c2)[nH]c2cc(-c3ccc(N4CCNCC4)nc3)ccc12 [Example 102, 1-(2-(2,6-dimethylpyridin-4-yl)-6-(6-(piperazin-1-yl)pyridin-3-yl)-1H-indol-3-yl)ethan-1-one] | 217 nM | 1730 nM
CNCC(=O)N1CCN(c2ccc(-c3ccc4c(C)c(-c5cc(C)nc(C)c5)[nH]c4c3)cn2)CC1 [Example 136] | 45.6 nM | 37.8 nM
Cc1cc(-c2[nH]c3cc(-c4ccc(C(=O)N5CCN6CCC5C6)cc4)ccc3c2C)cc(C)n1 (centres unmarked) [Example 128] | 83.3 nM | 146 nM
Cc1cc(-c2[nH]c3cc(-c4csc(N5CCNCC5)n4)ccc3c2C)cc(C)n1 [Example 146, 4-[2-(2,6-dimethyl-4-pyridyl)-3-methyl-1H-indol-6-yl]-2-piperazin-1-yl-thiazole] | 37.4 nM | 119 nM
Cc1cc(-c2[nH]c3cc(-c4cccc(C(=O)N5CC[C@@H](N)C5)c4)ccc3c2C)cc(C)n1 [Example 121] | 112 nM | 134 nM
Cc1cc(-c2[nH]c3cc(-c4ccc(N5CCN(C(=O)[C@@H]6CCCN6C)CC5)nc4)ccc3c2C)cc(C)n1 [Example 108] | 32.1 nM | 44.5 nM
Cc1cc(-c2[nH]c3cc(-c4ccc(N5CCNCC5)nc4)ccc3c2C)cn(C)c1=O [Example 94, 1,3-dimethyl-5-(3-methyl-6-(6-(piperazin-1-yl)pyridin-3-yl)-1H-indol-2-yl)pyridin-2(1H)-one] | 139 nM | 4.5 nM
Cc1cc(-c2[nH]c3cc(-c4ccc(N5CCNCC5)nc4)ccc3c2C)nc(C)n1 [Example 96] | 609 nM | 144 nM
Cc1cc(-c2[nH]c3cc(-c4ccc(CN5CCNCC5)cc4)ccc3c2C)cc(C)n1 [Example 7] | 87.2 nM | 170 nM
Cc1cc(-c2[nH]c3cc(-c4cnc5c(c4)CNCC5)ccc3c2C)cc(C)n1 [Example 9] | 50.5 nM | 38.1 nM
Cc1cc(-c2[nH]c3cc(-c4ccc(N5CCN(C(=O)[C@@H]6CCNC6)CC5)nc4)ccc3c2C)cc(C)n1 [Example 139] | 203 nM | 93.5 nM
Cc1cc(-c2[nH]c3cc(-c4ccc(N5CCN(C(=O)[C@@H]6CNCCO6)CC5)nc4)ccc3c2C)cc(C)n1 [Example 112] | 114 nM | 58.3 nM
